The values below come from US12251381B2, “Aripiprazole dosing strategy” (Alkermes Pharma Ireland Limited, priority 2018, dated 2025).

A short description of this series: Phase 1 study: injection-site evaluation (injection-site reactions). It counts as in vivo, human. The note with it: for patients who experienced ISRs / patients with injection-site pain: associated with the named injection; for Injection-site discomfort / Injection-site erythema / Injection-site induration / Injection-site pain / Injection-site swelling / Patients with at least one ISR: reactions associated with the named injection on day 1. On the procedure:
The duration of the study was approximately 6 months and consisted of screening, inpatient dosing, outpatient, and follow-up period (FIG. 1). […] A total of 160 patients were planned to be enrolled and randomized 1:1:1:1 to one of four treatment groups, as follows: 1-day initiation regimen groups (30 mg oral aripiprazole plus ALNCD, plus either AL 441 or 882 mg [on day 1] then 20 days of oral placebo), or 21-day initiation regimen groups (15 mg oral aripiprazole plus placebo IM, plus either AL 441 or 882 mg [on day 1] followed by 20 days of oral aripiprazole 15 mg/day). […] ALNCD or placebo were administered as IM injections in the gluteal muscle. For the AL doses, a single 441 mg dose was given in the deltoid muscle or a single 882 mg dose in the gluteal muscle contralateral to the ALNCD (or placebo) injection. All safety analyses were performed using observed data from the safety population, and measurements included adverse events (AEs), vital signs measurements, weight, laboratory test results, ECG findings, Columbia-Suicide Severity Rating Scale (C-SSRS) responses, movement disorder measures, CGI-S responses, and injection-site evaluation. AEs were assessed daily on days 1-15, every other day from days 17-25, on days 28 and 31, once-weekly from days 35 to 85, and on days 113 and 141. Injection-site evaluations were carried out daily on days 1-15, every other day from days 17-25, and on day 28. The injection site and surrounding area were evaluated with each injection (separately for the ALNCD or placebo injection site and AL site). Any observed injection-site reactions were followed until resolution.

Molecules are shown by their SMILES.

Regarding `CCCCCCCCCCCC(=O)OCN1C(=O)CCc2ccc(OCCCCN3CCN(c4cccc(Cl)c4Cl)CC3)cc21` [AL, (7-(4-(4-(2,3-dichlorophenyl)piperazin-1-yl)butoxy)-2-oxo-3,4-dihydroquinolin-1(2H)-yl)methyl dodecanoate], the “severity of Injection-Site Reactions (ISRs)” value (all ISRs associated with the injection) is reported as “mild-to-moderate”. Where the note is “listed as AL 441 mg”, the “patients who experienced ISRs” value is recorded as 22.8%, the “patients with injection-site pain” value is listed as 20.3%, the Injection-site discomfort was 1 (1.3) n (%) and the Injection-site erythema is 1 (1.3) n (%). In addition, for the setting “listed as AL 441 mg”, the Injection-site induration is 4 (5.1) n (%), the Injection-site pain is recorded as 16 (20.3) n (%), the Injection-site swelling was 2 (2.5) n (%) and the “Patients with at least one ISR” value was 18 (22.8) n (%). In addition, under “listed as AL 882 mg”, the “patients who experienced ISRs” value came to 18.3%, the “patients with injection-site pain” value is given as 18.3%, the Injection-site discomfort was 0 n (%) and the Injection-site erythema is 0 n (%). Moreover, under “listed as AL 882 mg”, the Injection-site induration is on record as 2 (2.4) n (%), the Injection-site pain is listed as 15 (18.3) n (%), the Injection-site swelling is 1 (1.2) n (%) and the “Patients with at least one ISR” value is recorded as 15 (18.3) n (%).
